The values that follow come from article PMC4658348 (ACS chemical biology, 2015).

By IC50 is commonly meant the concentration that gives 50% inhibition.

Type in all cases: biochemical
One assay concerns the target human HSP90α (Homo sapiens, UniProt P07900). The assay is described as follows: ATP/NADH-coupled ATPase assay.
Assay [1] concerns the target T1, vacuolar-type ATPase (V-ATPase) (Saccharomyces cerevisiae, UniProt P25515+P32563). The assay is described as follows: enzyme-coupled ATPase assay.
For assay [2], the target named is T1, vacuolar-type ATPase (V-ATPase). The assay is described as follows: enzyme-coupled ATPase assay. This is another data set of the same source.

For `CC[C@@H](O)[C@H](C)/C=C/C(=O)[C@@H](C)[C@H](O)[C@H](C)[C@H]1OC(=O)/C(C)=C/C(C)=C/[C@@H](C)[C@@H](O)[C@@H](C)C/C(C)=C/C=C/[C@@H]1OC` [oxohygrolidin], the values for the IC50 (at human HSP90α; in assay [1]) were around 50 µM and around 0.25 µM, respectively.
As to `CO/C1=C\C(C)=C\[C@@H](C)[C@@H](O)[C@@H](C)C/C(C)=C/C=C/[C@H](OC)[C@@H]([C@@H](C)[C@@H](O)[C@H](C)[C@@]2(O)C[C@@H](O)[C@H](C)[C@@H](C(C)C)O2)OC1=O` [bafilomycin A1], in assay [2], the “enzyme-coupled ATPase assay (NADH loss) with purified V-ATPase” value is “Oxohygrolidin (black bar) inhibited V-ATPase comparable to the plecomacrolides, bafilomycin A1(dotted bar), and concanamycin A (hatched bar)”.
